Where a name gives a salt, the structure may show the parent alone.
Experiments:
[1] = target: δ receptor (Homo sapiens, UniProt P41143); details: background statement; cited from earlier work
[2] = background statement; cited from earlier work

Chain of δ receptor (P41143 whole entry): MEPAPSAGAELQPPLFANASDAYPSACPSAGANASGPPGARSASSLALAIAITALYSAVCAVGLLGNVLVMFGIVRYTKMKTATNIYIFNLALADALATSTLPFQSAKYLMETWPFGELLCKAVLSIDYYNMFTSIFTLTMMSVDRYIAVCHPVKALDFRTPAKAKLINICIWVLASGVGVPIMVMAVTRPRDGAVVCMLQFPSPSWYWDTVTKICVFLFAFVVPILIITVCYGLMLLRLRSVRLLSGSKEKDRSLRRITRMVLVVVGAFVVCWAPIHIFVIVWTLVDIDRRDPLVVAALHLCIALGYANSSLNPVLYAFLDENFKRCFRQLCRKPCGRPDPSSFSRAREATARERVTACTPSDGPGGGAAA

Structure (SMILES)	melting point	selectivity for the δ receptor vs. μ receptor binding [1]	analgesic activity [2]
CCN(CC)C(=O)c1ccc(C(O)(c2cccc3cccnc23)C2CCN(C(=O)OC(C)(C)C)CC2)cc1 (stereo not drawn)	100 to 105 °C		
CCN(CC)C(=O)c1ccc(C(O)(c2cccc(OC)c2)C2CCN(C(=O)OC(C)(C)C)CC2)cc1 (stereo not drawn)	95 to 103 °C		
CCN(CC)C(=O)c1ccc(C(=C2CCN(C3CCCCC3)CC2)c2ccccc2)cc1 (as salt: HCl)	105 to 109 °C		
CCN(CC)C(=O)c1ccc(C(=C2CCN(Cc3ccc(OC)cc3)CC2)c2ccccc2)cc1 (as salt: HCl)	100 to 110 °C		
CCN(CC)C(=O)c1ccc(C(=C2CCN(Cc3ccc(Cl)cc3Cl)CC2)c2ccccc2)cc1 (as salt: HCl)	95 to 110 °C		
CCN(CC)C(=O)c1ccc(C(=C2CCNCC2)c2cccc3cccnc23)cc1 (as salt: HCl)	> 170 °C (dec.)		
CCN(CC)C(=O)c1ccc(C(=C2CCNCC2)c2cccc(OC)c2)cc1 (as salt: HCl)	> 90 °C (dec.)		
CCN(CC)C(=O)c1ccc(C(=C2CCN(Cc3ccccc3)CC2)c2cccc(OC)c2)cc1 (as salt: HCl)	100 to 110 °C		
CCN(CC)C(=O)c1ccc(C(=C2CCN(Cc3ccccc3)CC2)c2ccccc2)cc1 (as salt: HCl)	230 to 245 °C		
CCN(CC)C(=O)c1ccc(C(=C2CCN(Cc3ccccc3)CC2)c2ccc(Cl)cc2)cc1 (as salt: salt)	100 to 110 °C		
Oc1ccc2c3c1O[C@H]1c4[nH]c5ccccc5c4C[C@@]4(O)[C@@H](C2)N(CC2CC2)CC[C@]314 [naltrindole]		< 10 fold	no analgesic activity

Reference: patent publication US7312336B2, “Compounds with analgesic effect” (AstraZeneca Canada Inc., priority 1996, dated 2007)
